Experimental data as given in PubChem BioAssay AID192 (DTP/NCI, 2004).
Toxic doses and inconclusive results are not listed. Peptide text beside a SMILES is read from it. * marks the point of attachment. Cbz = O=C(OCc1ccccc1)*

System: BDF1 mice, B16 melanoma ip, median survival T/C
Assay: NCI In Vivo Anticancer Drug Screen. Data for tumor model B16 Melanoma (intraperitoneal) in B6D2F1 (BDF1) mice
Settings: endpoint: median survival time, higher = longer survival
Summary of the method: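 Tumor-bearing mice received test compound or vehicle. Survival or tumor size was then measured in both groups. The treated-group figure was divided by the control-group figure.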

[1] = dose: 0.78 mg/kg/injection, schedule: Q01DX009 (ip), vehicle: saline
[2] = dose: 1.56 mg/kg/injection, schedule: Q01DX009 (ip), vehicle: saline
[3] = dose: 3.12 mg/kg/injection, schedule: Q01DX009 (ip), vehicle: saline
[4] = dose: 50.0 mg/kg/injection, schedule: Q01DX009 (ip), vehicle: saline with Tween-80
[5] = dose: 100.0 mg/kg/injection, schedule: Q01DX009 (ip), vehicle: saline with Tween-80
[6] = dose: 12.5 mg/kg/injection, schedule: Q01DX009 (ip), vehicle: saline with Tween-80
[7] = dose: 25.0 mg/kg/injection, schedule: Q01DX009 (ip), vehicle: saline with Tween-80
[8] = dose: 100.0 mg/kg/injection, schedule: Q01DX009 (ip), vehicle: Klucel (hydroxypropylcellulose) (HPC)
[9] = dose: 200.0 mg/kg/injection, schedule: Q01DX009 (ip), vehicle: Klucel (hydroxypropylcellulose) (HPC)
[10] = dose: 12.5 mg/kg/injection, schedule: Q01DX009 (ip), vehicle: Klucel (hydroxypropylcellulose) (HPC)
[11] = dose: 100.0 mg/kg/injection, schedule: Q04DX003 (ip), vehicle: Klucel (hydroxypropylcellulose) (HPC)
[12] = dose: 200.0 mg/kg/injection, schedule: Q04DX003 (ip), vehicle: Klucel (hydroxypropylcellulose) (HPC)
[13] = dose: 400.0 mg/kg/injection, schedule: Q04DX003 (ip), vehicle: Klucel (hydroxypropylcellulose) (HPC)
[14] = dose: 6.25 mg/kg/injection, schedule: Q01DX009 (ip), vehicle: saline with Tween-80
[15] = dose: 400.0 mg/kg/injection, schedule: Q01DX009 (ip), vehicle: Klucel (hydroxypropylcellulose) (HPC)
[16] = dose: 200.0 mg/kg/injection, schedule: Q01DX009 (ip), vehicle: saline with Tween-80
[17] = dose: 400.0 mg/kg/injection, schedule: Q01DX009 (ip), vehicle: saline with Tween-80
[18] = dose: 100.0 mg/kg/injection, schedule: Q04DX003 (ip), vehicle: saline with Tween-80
[19] = dose: 200.0 mg/kg/injection, schedule: Q04DX003 (ip), vehicle: saline with Tween-80
[20] = dose: 400.0 mg/kg/injection, schedule: Q04DX003 (ip), vehicle: saline with Tween-80
[21] = dose: 50.0 mg/kg/injection, schedule: Q01DX009 (ip), vehicle: saline

CN(C)CC/C=C1\c2ccccc2Sc2ccc(C(F)(F)F)cc21
T/C (dose: 0.19 mg/kg/injection, schedule: Q01DX009 (ip), vehicle: saline): 105 % of control | T/C (dose: 0.39 mg/kg/injection, schedule: Q01DX009 (ip), vehicle: saline): 122 % of control | T/C [1]: 111 % of control | T/C [2]: 108 % of control | T/C [3]: 105 % of control | T/C (dose: 6.12 mg/kg/injection, schedule: Q01DX009 (ip), vehicle: saline): 90 % of control

O=C(NC(Cc1ccccc1)C(=O)NC(CO)C(=O)O)OCc1ccccc1 (stereo not drawn) (Cbz-Phe-Ser-OH; configuration not given here)
T/C [4]: 95 % of control | T/C [5]: 90 % of control

[Cl][Pt+2][Cl].[NH-]C1CCC1.[NH2-]
T/C (dose: 1.5 mg/kg/injection, schedule: Q01DX009 (ip), vehicle: saline): 176 % of control | T/C (dose: 3.0 mg/kg/injection, schedule: Q01DX009 (ip), vehicle: saline): 162 % of control

Cc1noc2nccnc12
T/C [6]: 92 % of control | T/C [7]: 95 % of control | T/C [4]: 88 % of control

O=C(O)c1cc(-c2ccc(Cl)cc2)nc2c(Cl)cccc12
T/C [8]: 100 % of control

N#CO
T/C (dose: 18.7 mg/kg/injection, schedule: Q01DX009 (ip), vehicle: saline): 100 % of control | T/C (dose: 37.5 mg/kg/injection, schedule: Q01DX009 (ip), vehicle: saline): 105 % of control | T/C (dose: 75.0 mg/kg/injection, schedule: Q01DX009 (ip), vehicle: saline): 105 % of control

O=C1OC(=O)C2C1C1C3C=CC3C1C21C=C1 (stereo not given)
T/C [8]: 87 % of control | T/C [9]: 87 % of control

FC(F)(F)c1ccc2nc(CI)c(CI)nc2c1
T/C (dose: 6.25 mg/kg/injection, schedule: Q01DX009 (ip), vehicle: Klucel (hydroxypropylcellulose) (HPC)): 110 % of control | T/C [10]: 93 % of control | T/C (dose: 25.0 mg/kg/injection, schedule: Q01DX009 (ip), vehicle: Klucel (hydroxypropylcellulose) (HPC)): 96 % of control | T/C (dose: 50.0 mg/kg/injection, schedule: Q01DX009 (ip), vehicle: Klucel (hydroxypropylcellulose) (HPC)): 93 % of control

COc1cc2c(cc1OC)/C(=N/N=C1\CCCc3cc(OC)c(OC)cc31)CCC2
T/C (dose: 1.56 mg/kg/injection, schedule: Q01DX009 (ip), vehicle: water): 104 % of control | T/C (dose: 3.13 mg/kg/injection, schedule: Q01DX009 (ip), vehicle: water): 100 % of control | T/C (dose: 6.25 mg/kg/injection, schedule: Q01DX009 (ip), vehicle: water): 100 % of control | T/C (dose: 12.5 mg/kg/injection, schedule: Q01DX009 (ip), vehicle: water): 95 % of control

C1CCC(OB2OB(OC3CCCCC3)OB(OC3CCCCC3)O2)CC1
T/C (dose: 50.0 mg/kg/injection, schedule: Q01DX009 (ip), vehicle: other): 103 % of control | T/C (dose: 100.0 mg/kg/injection, schedule: Q01DX009 (ip), vehicle: other): 93 % of control | T/C (dose: 200.0 mg/kg/injection, schedule: Q01DX009 (ip), vehicle: other): 102 % of control

NC(=O)CC(NC(=O)OCc1ccccc1)C(N)=O (stereo not given)
T/C [11]: 100 % of control | T/C [12]: 87 % of control | T/C [13]: 87 % of control

O=C(CNC(=O)Nc1ccc(C2=NCCN2)cc1)Nc1ccc(C2=NCCN2)cc1
T/C [14]: 97 % of control | T/C [6]: 100 % of control | T/C [7]: 97 % of control

CC(=O)CC(=O)Nc1cccc(C)c1C
T/C [8]: 94 % of control | T/C [9]: 86 % of control | T/C [15]: 94 % of control

NCC(=O)NCC(=O)NC(Cc1ccc(O)cc1)C(=O)O (stereo not given)
T/C [4]: 104 % of control | T/C [5]: 94 % of control | T/C [16]: 102 % of control | T/C [17]: 95 % of control

O=C(NO)N/N=C/c1ccc(/C=N/NC(=O)NO)cc1
T/C [18]: 100 % of control | T/C [19]: 102 % of control | T/C [20]: 90 % of control

O=S(=O)(F)c1cc(C[P+](c2ccccc2)(c2ccccc2)c2ccccc2)ccc1Cl
T/C (dose: 0.1 mg/kg/injection, schedule: Q01DX009 (ip), vehicle: saline with Tween-80): 105 % of control | T/C (dose: 0.1 mg/kg/injection, schedule: Q04DX003 (ip), vehicle: saline with Tween-80): 112 % of control | T/C (dose: 0.2 mg/kg/injection, schedule: Q01DX009 (ip), vehicle: saline with Tween-80): 90 % of control | T/C (dose: 0.2 mg/kg/injection, schedule: Q04DX003 (ip), vehicle: saline with Tween-80): 110 % of control | T/C (dose: 0.4 mg/kg/injection, schedule: Q01DX009 (ip), vehicle: saline with Tween-80): 100 % of control | T/C (dose: 0.4 mg/kg/injection, schedule: Q04DX003 (ip), vehicle: saline with Tween-80): 110 % of control | T/C (dose: 3.0 mg/kg/injection, schedule: Q04DX003 (ip), vehicle: saline with Tween-80): 86 % of control | T/C (dose: 12.5 mg/kg/injection, schedule: Q04DX003 (ip), vehicle: saline with Tween-80): 86 % of control

C#CCOCC(CCl)OC(N)=O (stereo not given)
T/C (dose: 50.0 mg/kg/injection, schedule: Q04DX003 (ip), vehicle: saline with Tween-80): 111 % of control | T/C [18]: 105 % of control | T/C [19]: 108 % of control

CCCCCCC1CCC(N)CC1 (stereo not given)
T/C [10]: 86 % of control

COc1cc2c(Cc3ccc(OC)c(OC)c3)[n+](Cc3ccccc3)ccc2cc1NCc1ccccc1
T/C (dose: 0.78 mg/kg/injection, schedule: Q01DX009 (ip), vehicle: saline with Tween-80): 105 % of control | T/C (dose: 1.56 mg/kg/injection, schedule: Q01DX009 (ip), vehicle: saline with Tween-80): 106 % of control | T/C (dose: 3.12 mg/kg/injection, schedule: Q01DX009 (ip), vehicle: saline with Tween-80): 110 % of control | T/C [14]: 110 % of control

CCCCNS(=O)(=O)c1ccc(OC)c(N)c1
T/C [11]: 95 % of control | T/C [12]: 95 % of control | T/C [13]: 111 % of control

CSc1nc(NC(C)C)nc(NC(C)C)n1
T/C [7]: 102 % of control | T/C [4]: 92 % of control | T/C [5]: 102 % of control

CCCCCCNC(=O)Nc1cccc(Cl)c1C
T/C [11]: 92 % of control | T/C [12]: 90 % of control | T/C [13]: 87 % of control

NCC1OC(OC2C(CO)OC(OC3C(O)C(N)CC(N)C3OC3OC(CO)C(O)C(O)C3N)C2O)C(N)C(O)C1O (stereo not given)
T/C [21]: 114 % of control | T/C (dose: 100.0 mg/kg/injection, schedule: Q01DX009 (ip), vehicle: saline): 108 % of control | T/C (dose: 200.0 mg/kg/injection, schedule: Q01DX009 (ip), vehicle: saline): 111 % of control | T/C (dose: 400.0 mg/kg/injection, schedule: Q01DX009 (ip), vehicle: saline): 112 % of control

CC(=O)Oc1cccc(C#N)c1
T/C [5]: 108 % of control | T/C [16]: 112 % of control | T/C [17]: 91 % of control

NC1(c2ccccc2)CCCCC1
T/C [3]: 86 % of control | T/C (dose: 6.25 mg/kg/injection, schedule: Q01DX009 (ip), vehicle: saline): 100 % of control | T/C (dose: 12.5 mg/kg/injection, schedule: Q01DX009 (ip), vehicle: saline): 102 % of control | T/C (dose: 25.0 mg/kg/injection, schedule: Q01DX009 (ip), vehicle: saline): 100 % of control | T/C [21]: 100 % of control

CCCCCCCCCCCCCC[N+](C)(C)CC(=O)O
T/C [6]: 93 % of control | T/C [7]: 91 % of control | T/C [4]: 86 % of control

Oc1ccccc1C=NCC[N-]CCN=Cc1ccccc1O.[Cu+]
T/C (dose: 0.39 mg/kg/injection, schedule: Q01DX009 (ip), vehicle: Klucel (hydroxypropylcellulose) (HPC)): 97 % of control | T/C (dose: 0.78 mg/kg/injection, schedule: Q01DX009 (ip), vehicle: Klucel (hydroxypropylcellulose) (HPC)): 96 % of control | T/C (dose: 1.56 mg/kg/injection, schedule: Q01DX009 (ip), vehicle: Klucel (hydroxypropylcellulose) (HPC)): 90 % of control

CCCC(C(=O)O)C(CCC)C(=O)O (stereo not given)
T/C [18]: 97 % of control | T/C [19]: 88 % of control | T/C [20]: 88 % of control

COc1ccc(C(=O)c2ccc(C)cc2)cc1
T/C [8]: 97 % of control | T/C [11]: 88 % of control | T/C [9]: 93 % of control | T/C [12]: 95 % of control | T/C [15]: 93 % of control | T/C [13]: 102 % of control

CC1=C(C)C(=O)O[C@@H]([C@](C)(O)[C@]2(O)CC[C@@]3(O)[C@@H]4C[C@H]5O[C@]56CC=CC(=O)[C@]6(C)[C@H]4CC[C@]23C)C1
T/C [1]: 102 % of control | T/C [2]: 114 % of control
